{"source": "patent US11965159B2", "about": "“Compositions and methods for regulating proteins and nucleic acids activities” (THE BROAD INSTITUTE, INC., priority 2019, dated 2024)", "key": {"[1]": {"target": "T1, SpCas9:gRNA ribonucleoprotein complex (Streptococcus pyogenes serotype M1, UniProt Q99ZW2)", "T1 construct": "His6 (N, cleaved yes); made in house; host or cells: E. coli BL21 Star (DE3)", "T1 sequence (Q99ZW2 whole entry, one chain of several)": "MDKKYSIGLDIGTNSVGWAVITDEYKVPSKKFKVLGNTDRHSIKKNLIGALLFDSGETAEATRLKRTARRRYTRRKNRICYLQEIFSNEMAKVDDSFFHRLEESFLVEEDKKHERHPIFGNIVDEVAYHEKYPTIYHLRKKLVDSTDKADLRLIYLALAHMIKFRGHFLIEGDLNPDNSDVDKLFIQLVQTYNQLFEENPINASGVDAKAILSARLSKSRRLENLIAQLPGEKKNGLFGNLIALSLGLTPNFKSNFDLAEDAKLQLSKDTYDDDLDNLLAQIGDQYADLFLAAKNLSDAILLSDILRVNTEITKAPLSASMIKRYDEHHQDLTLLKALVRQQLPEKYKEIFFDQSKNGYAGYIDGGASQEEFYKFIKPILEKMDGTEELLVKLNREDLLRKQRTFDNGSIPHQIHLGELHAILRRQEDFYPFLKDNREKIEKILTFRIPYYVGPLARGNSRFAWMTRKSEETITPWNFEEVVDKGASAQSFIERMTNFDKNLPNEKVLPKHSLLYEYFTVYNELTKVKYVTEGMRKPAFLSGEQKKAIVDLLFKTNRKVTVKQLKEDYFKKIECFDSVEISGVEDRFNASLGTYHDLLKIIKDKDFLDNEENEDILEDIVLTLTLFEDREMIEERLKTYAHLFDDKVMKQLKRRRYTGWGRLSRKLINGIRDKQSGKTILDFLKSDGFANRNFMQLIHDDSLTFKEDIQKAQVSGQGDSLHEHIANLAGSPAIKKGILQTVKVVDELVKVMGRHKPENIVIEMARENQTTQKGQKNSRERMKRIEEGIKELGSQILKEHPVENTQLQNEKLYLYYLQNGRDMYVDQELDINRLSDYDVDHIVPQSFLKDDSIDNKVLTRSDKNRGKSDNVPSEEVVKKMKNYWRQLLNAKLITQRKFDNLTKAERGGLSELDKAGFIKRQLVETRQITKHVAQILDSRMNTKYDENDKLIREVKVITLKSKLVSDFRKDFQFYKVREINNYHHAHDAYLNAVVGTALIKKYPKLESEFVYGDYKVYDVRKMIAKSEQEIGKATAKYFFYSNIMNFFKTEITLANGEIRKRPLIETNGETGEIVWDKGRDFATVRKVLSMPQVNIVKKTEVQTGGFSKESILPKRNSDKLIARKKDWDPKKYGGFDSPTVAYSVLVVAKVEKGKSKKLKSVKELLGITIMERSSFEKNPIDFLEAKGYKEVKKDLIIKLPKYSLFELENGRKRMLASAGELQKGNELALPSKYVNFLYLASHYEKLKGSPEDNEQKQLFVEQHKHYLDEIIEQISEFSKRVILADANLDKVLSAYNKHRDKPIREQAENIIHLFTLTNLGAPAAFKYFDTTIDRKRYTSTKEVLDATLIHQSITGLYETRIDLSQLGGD", "experiment": "19F NMR binding assay", "settings": "[Ligand] 50 μM", "experimental": "(§1) NMR binding assay. All samples were prepared with 50 μM BRD7087 in 20 mM Tris buffer (pH=7.4) with varying concentrations of SpCas9:gRNA in a 3 mm NMR tube. Experiments were performed on a 600 MHz (19F: 564.71 MHz) BRUKER Avance™ III NMR spectrometer equipped with a 5 mm QCI-F CryoProbe™ and a SampleJet for automated sample handling. To acquire spectra, a standard one-pulse 19F experiment with WALTZ-16 for proton decoupling during acquisition, a 5 second recycle delay, and 256 scans was used. All spectra were recorded at 280 K. NMR data were apodized with a 1 Hz exponential function prior to Fourier transformation. All spectra were baseline corrected; peak widths and intensities were extracted using the automated line-fitting feature provided with the MNova software package. Determination of the value of Kd was accomplished using least squares fitting to the expression given in Equation 8 in the paper by Shortridge et al.2.\nKd values obtained by NMR rely on the assumption that ligand binding is in fast-exchange, which typically holds true for ligands with Kd in the 0.5 μM to 20 mM range.\nas §1, with “(^19F:” for “(19F:”, “^19F” for “19F”, “al.^2.” for “al.2.”"}, "[2]": {"target": "SpCas9 (Streptococcus pyogenes serotype M1, UniProt Q99ZW2)", "sequence (Q99ZW2 whole entry)": "as the sequence (Q99ZW2 whole entry, one chain of several) above", "experiment": "mKate2 expression (knockdown/disruption) assay", "format": "cell-based", "settings": "read-out: inhibition activity in mKate2 disruption assay", "experimental": "Where σ1 and σ2 are the standard deviations of DN66 transfected wells and (DN66+DN78) transfected wells respectively. μ1 and μ2 are the mean % GFP− cell population for DN66 transfected wells and (DN66+DN78) transfected wells respectively. mKate2 expression assay. Approximately 8,000 cells/well were plated in a 96-well format 24 h before transiently transfected with 100 ng of either CgRNA (Addgene Plasmid #64955) or T1 gRNA (Addgene Plasmid #62717) plasmids using Lipofectamine™ 2000 (Life Technologies™). Transfected cells were allowed to grow in the indicated amount of compound or DMSO for 24 h. Cells were then fixed using 4% paraformaldehyde and imaged with the HCS NuclearMask™ Blue Stain (Life Technologies™) as the nuclear counter-staining agent. […] Images were analyzed in the MetaXpress® software to determine the % mKate2 positive cells and the % NHEJ was calculated following a reported protocol and plotted using GraphPad Prism 6. The Z′-value was calculated following the formula:\nmKate2 expression assay. […] Images were analyzed in the MetaXpress® software to determine the % mKate2 positive cells and the % NHEJ was calculated following a reported protocol and plotted using GraphPad Prism 6. The Z′-value was calculated following the formula: […]"}}}
{"smiles": "OC[C@H]1Nc2ccc(-c3cccc(F)c3)cc2[C@H]2[C@@H]1CCN2Cc1ccncc1", "note": "[BRD7087, ((3aR,4S,9bR)-8-(3-Fluorophenyl)-1-(pyridin-4-ylmethyl)-2,3,3a,4,5,9b-hexahydro-1H-pyrrolo[3,2-c]quinolin-4-yl)methanol]", "values": [{"measurement": "LW", "setting": "[1]; [Protein:RNA] 0 μM", "value": 4.1, "unit": "Hz"}, {"measurement": "Peak Area", "setting": "[1]; [Protein:RNA] 0 μM", "value": 3151271.718}, {"measurement": "Peak Intensity", "setting": "[1]; [Protein:RNA] 0 μM", "value": 572470.95}, {"measurement": "Fractional Occupancy", "setting": "[1]; [Protein:RNA] 0 μM, 1-Ibound/I0", "value": 0}, {"measurement": "LW", "setting": "[1]; [Protein:RNA] 0.75 μM", "value": 4.3, "unit": "Hz"}, {"measurement": "Peak Area", "setting": "[1]; [Protein:RNA] 0.75 μM", "value": 2968891.536}, {"measurement": "Peak Intensity", "setting": "[1]; [Protein:RNA] 0.75 μM", "value": 497630.81}, {"measurement": "LW", "setting": "[1]; [Protein:RNA] 1.0 μM", "value": 4.6, "unit": "Hz"}, {"measurement": "Peak Area", "setting": "[1]; [Protein:RNA] 1.0 μM", "value": 2999269.636}, {"measurement": "Peak Intensity", "setting": "[1]; [Protein:RNA] 1.0 μM", "value": 468481.06}, {"measurement": "LW", "setting": "[1]; [Protein:RNA] 1.25 μM", "value": 5.3, "unit": "Hz"}, {"measurement": "Peak Area", "setting": "[1]; [Protein:RNA] 1.25 μM", "value": 2964107.303}, {"measurement": "Peak Intensity", "setting": "[1]; [Protein:RNA] 1.25 μM", "value": 398322.72}, {"measurement": "LW", "setting": "[1]; [Protein:RNA] 1.5 μM", "value": 5.9, "unit": "Hz"}, {"measurement": "Peak Area", "setting": "[1]; [Protein:RNA] 1.5 μM", "value": 3176044.761}, {"measurement": "Peak Intensity", "setting": "[1]; [Protein:RNA] 1.5 μM", "value": 375769.97}, {"measurement": "LW", "setting": "[1]; [Protein:RNA] 1.75 μM", "value": 6.3, "unit": "Hz"}, {"measurement": "Peak Area", "setting": "[1]; [Protein:RNA] 1.75 μM", "value": 3020022.312}, {"measurement": "Peak Intensity", "setting": "[1]; [Protein:RNA] 1.75 μM", "value": 342640.49}, {"measurement": "inhibition at 5 µM", "setting": "[2]", "value": 50, "unit": "%"}]}
